# Experimental data published in patent US10877026B2, “Blood brain barrier models and methods to generate and use the same” (Purdue Research Foundation, priority 2016, dated 2020).
# Read-outs that look alike come from different tables or passages of the source.
# Assays:
# direct contact coculture = test: MTT cell viability assay; assay type: cell-based, human; conditions: n=6
# Description: Cell viability in the presence of various HEPES concentrations was inferred by the mitochondrial oxidation of 3-(4,5-dimethylthiazol-2-yl)-2,5-diphenyltetrazolium bromide (MTT) dye. The direct contact coculture was plated in a 96-well plate following the same methods as stated above. On Day 7 post hCMEC/D3 plating, media containing HEPES was removed and replaced with 190 μL, fresh media and 10 μL of 5 mg/mL MTT and incubated at 37° C. with 5% CO2 for 4 hours. MTT was then removed and replaced with 200 μL DMSO and left agitating at room temperature for 1 hour. Absorbance at 570 nm was determined using a plate reader. Cell viability was normalized to 10 mM HEPES control. Assays were performed with n=6.
# [1] = tested on: co-culture of astrocytes and pericytes; test: Mannitol permeability across mono- or co-cultures of astrocytes and pericytes; assay type: in vitro ADME
# [2] = tested on: direct-contact triculture of astrocytes, pericytes and hCMEC/D3 cells
# in vitro [3] = conditions: human
# in vitro [4] = conditions: human; remark: listed apart in the source
# Description: (§1) For human astrocyte monocultures, 4×10^4 cells were seeded onto Transwells® coated with 2 μg/cm^2 poly-L-lysine and grown for 9 days prior to permeability studies.
# (§2) Before all permeability studies, cells were washed twice with PBS before equilibrating in HBSS for 20 minutes shortly before the study. After study initiation, 100 μL samples were taken at 15, 30, 45, 60, and 90 minute time points. 4 mL of scintillation cocktail was added for analysis by scintillation counting.
# [5] = Apparent permeability across human astrocyte monoculture; assay type: in vitro ADME; conditions: human; astrocytes grown in monoculture
# Description: as §1
# as §2, with “. Before” for “Before”
# [6] = tested on: human astrocyte monolayers; test: as above; assay type: in vitro ADME
# Description: as §1
# as §2, with “. Before” for “Before”
# hCMEC/D3 monoculture = test: in vitro
# Description: as §1, §2
# [7] = tested on: direct contact coculture of human astrocytes and hCMEC/D3 cells
# Pgp = target: T1, Pgp (Homo sapiens, UniProt P08183); test: Drug-interaction of elacridar and digoxin in BBB culture models; assay type: cell-based; conditions: triculture versus hCMEC/D3 monoculture or astrocyte-pericyte co-culture, FIG. 17
# T1 construct: endogenous in cells; host or cells: hCMEC/D3 monoculture, astrocyte-pericyte coculture and triculture
# T1 sequence (P08183 whole entry): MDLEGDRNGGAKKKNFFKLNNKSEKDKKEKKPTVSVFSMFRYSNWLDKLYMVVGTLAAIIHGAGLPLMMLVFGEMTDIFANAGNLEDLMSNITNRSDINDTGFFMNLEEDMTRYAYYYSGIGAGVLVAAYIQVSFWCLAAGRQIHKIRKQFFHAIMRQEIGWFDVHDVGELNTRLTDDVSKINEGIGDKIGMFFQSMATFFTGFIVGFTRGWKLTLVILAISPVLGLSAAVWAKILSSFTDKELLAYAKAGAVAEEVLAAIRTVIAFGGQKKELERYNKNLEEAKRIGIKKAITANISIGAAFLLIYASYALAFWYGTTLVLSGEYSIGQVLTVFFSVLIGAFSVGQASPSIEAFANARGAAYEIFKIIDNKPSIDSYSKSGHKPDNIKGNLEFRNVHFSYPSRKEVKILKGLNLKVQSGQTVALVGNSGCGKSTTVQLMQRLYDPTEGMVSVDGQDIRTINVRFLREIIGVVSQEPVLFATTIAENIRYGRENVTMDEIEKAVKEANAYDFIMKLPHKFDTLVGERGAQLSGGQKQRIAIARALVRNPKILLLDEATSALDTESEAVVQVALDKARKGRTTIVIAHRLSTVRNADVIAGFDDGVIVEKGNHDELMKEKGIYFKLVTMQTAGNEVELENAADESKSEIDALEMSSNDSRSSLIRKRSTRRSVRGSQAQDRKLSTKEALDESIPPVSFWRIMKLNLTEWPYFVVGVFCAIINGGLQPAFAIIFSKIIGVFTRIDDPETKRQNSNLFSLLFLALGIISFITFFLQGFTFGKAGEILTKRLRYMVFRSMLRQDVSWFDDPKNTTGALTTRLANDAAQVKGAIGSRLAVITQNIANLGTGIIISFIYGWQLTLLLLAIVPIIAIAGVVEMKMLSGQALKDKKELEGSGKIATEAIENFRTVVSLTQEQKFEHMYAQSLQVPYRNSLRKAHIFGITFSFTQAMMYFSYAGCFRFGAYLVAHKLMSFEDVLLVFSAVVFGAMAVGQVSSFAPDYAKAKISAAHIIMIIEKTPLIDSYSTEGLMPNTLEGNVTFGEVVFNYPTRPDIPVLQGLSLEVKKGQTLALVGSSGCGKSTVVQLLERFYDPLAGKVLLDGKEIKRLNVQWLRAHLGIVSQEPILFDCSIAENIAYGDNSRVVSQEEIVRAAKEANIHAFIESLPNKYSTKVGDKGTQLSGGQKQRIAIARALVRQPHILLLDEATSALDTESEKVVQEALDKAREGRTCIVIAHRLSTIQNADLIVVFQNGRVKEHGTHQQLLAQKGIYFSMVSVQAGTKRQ
# [8] = tested on: direct-contact triculture of astrocytes, pericytes and hCMEC/D3 cells; test: Permeability across direct-contact triculture BBB model; conditions: hCMEC/D3 monoculture as control, n=5, FIG. 9
# [9] = tested on: direct contact coculture of human astrocytes and hCMEC/D3 cells; test: Apparent permeability across direct contact coculture on Transwell; conditions: for apparent permeability, reproducibility: different passage number
molecule,measurement,setting,value
"O=S(=O)(O)CCN1CCN(CCO)CC1 [HEPES, 4-(2-hydroxyethyl)-1-piperazineethanesulfonic acid]",change in cell viability (MTT),direct contact coculture; 25 mM HEPES in comparison to 10 mM HEPES control,−8.2±2.0%
same,change in cell viability (MTT),direct contact coculture; 50 mM HEPES compared to 10 mM HEPES control,−28.4±2.6%
OC[C@@H](O)[C@@H](O)[C@H](O)[C@H](O)CO [Mannitol],effective permeability,"[1]; co-culture of astrocytes and pericytes versus astrocytes monoculture, FIG. 8B, n=6",lower in comparison to monoculture of astrocytes
same,apparent permeability,"[1]; co-culture versus astrocytes or pericytes alone, FIG. 8A",lower in the co-culture of astrocytes and pericytes
same,"decrease in permeability, mono- versus tri-culture","[2]; human, 90 min, 0.25 μCi/mL",1.5 fold
same,"Papp A→B at 90 min, 0.25 μCi/mL",in vitro [3]; Papp,15.2 ± 0.69 ×10⁻⁶ cm/s
same,"Papp A→B at 90 min, 0.25 μCi/mL",in vitro [3]; apparent permeability,15.2 ± 0.7 ×10⁻⁶ cm/s
CC(C)NCC(O)COc1cccc2ccccc12 (stereo not drawn) [Propranolol],"Papp A→B at 90 min, 0.25 μCi/mL",in vitro [4],19.1 ± 1.9 ×10⁻⁶ cm/s
same,"Papp A→B at 90 min, 0.25 μCi/mL",[5],45.8 ± 4.1 ×10⁻⁶ cm/s
same,fold lower permeability in hCMEC/D3 and direct contact coculture than in astrocyte monoculture,[6],~3 fold
same,transcellular permeability across the BBB-triculture relative to L-histidine,[2],significantly slower than L-histidine
same,"Papp A→B at 90 min, 0.25 μCi/mL",in vitro [3]; apparent permeability,16.1 ± 0.4 ×10⁻⁶ cm/s
Cc1ncc(C[n+]2csc(CCO)c2C)c(N)n1 [Thiamine],transcellular permeability across the BBB-triculture relative to L-histidine,[2],significantly slower than L-histidine
NC(N)=O [Urea],apparent permeability,hCMEC/D3 monoculture,2.96±0.11 ×10^−5 cm/s
same,Papp,[7],2.43 ± 0.155 ×10^−5 cm/s
same,apparent permeability,[7],2.43±0.15 ×10^−5 cm/s
COc1cc2c(cc1OC)CN(CCc1ccc(NC(=O)c3cccc4c(=O)c5cccc(OC)c5[nH]c34)cc1)CC2 [elacridar],inhibition of Pgp function (digoxin),Pgp,more difficult to inhibit Pgp function in the triculture
CC(=O)O[C@H]1C(=O)[C@@]2(C)[C@H]([C@H](OC(=O)c3ccccc3)[C@]3(O)C[C@H](OC(=O)[C@H](O)[C@@H](NC(=O)c4ccccc4)c4ccccc4)C(C)=C1C3(C)C)[C@]1(OC(C)=O)CO[C@@H]1C[C@@H]2O [paclitaxel],transcellular permeability across the BBB-triculture relative to L-histidine,[2],significantly slower than L-histidine
Inulin,apparent permeability,"hCMEC/D3 monoculture; hCMEC/D3 monoculture, n=3",8.46±0.02 ×10^−6 cm/s
same,"decrease in permeability, mono- versus tri-culture",[8],8 fold
same,Papp,"[9]; Table 4, values match the direct contact coculture",0.754 ± 0.030 ×10^−5 cm/s
same,apparent permeability,"[9]; direct contact coculture, n=3",7.55±0.3 ×10^−6 cm/s
same,"apparent permeability, reproducibility",[9]; first additional independent experiment,7.51±0.01 ×10^−6 cm/s
same,"apparent permeability, reproducibility",[9]; second additional independent experiment,7.94±0.03 ×10^−6 cm/s
